Patent US11135234B2, “Effective aminoglycoside antibiotic for multidrug-resistant bacteria” (MICROBIAL CHEMISTRY RESEARCH FOUNDATION, priority 2015, dated 2021)
Converted amounts (≈) assume the structure as drawn.

Key:
[1] = tested on: S. marcescens GN6944; assay: MIC, agar plate dilution method, S. marcescens GN6944; format: cell-based, Serratia marcescens; settings: S. marcescens GN6944, GM-resistant; for MIC: Serratia marcescens, read-out: minimal inhibitory concentration (MIC)
Summary of the method: (§1)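 MIC values, expressed in μg/mL, come from an agar plate dilution assay run as the Japan Society of Chemotherapy describes.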

[2] = tested on: E. faecium ATCC19434; assay: MIC, agar plate dilution method, E. faecium ATCC19434; format: cell-based, Enterococcus faecium; settings: for MIC: Enterococcus faecium, ATCC19434, E. faecium ATCC19434, read-out: minimal inhibitory concentration (MIC)
Summary of the method: as §1

[3] = tested on: K. pneumoniae ATCC BAA-1705; assay: MIC, agar plate dilution method, K. pneumoniae ATCC BAA-1705; format: cell-based, Klebsiella pneumoniae; settings: for MIC: Klebsiella pneumoniae, ATCCBAA1705, K. pneumoniae ATCC BAA-1705, KPC-producing strain, read-out: minimal inhibitory concentration (MIC)
Summary of the method: as §1

[4] = tested on: K. pneumoniae ATCC BAA-2146; assay: MIC, agar plate dilution method, K. pneumoniae ATCC BAA-2146; format: cell-based, Klebsiella pneumoniae; settings: for MIC: Klebsiella pneumoniae, ATCCBAA2146, K. pneumoniae ATCC BAA-2146, NDM-producing strain, read-out: minimal inhibitory concentration (MIC)
Summary of the method: as §1

[5] = tested on: S. aureus RN4220/pMS520; assay: MIC, agar plate dilution method, S. aureus RN4220/pMS520; format: cell-based, Staphylococcus aureus; settings: for MIC: Staphylococcus aureus, MRSA, read-out: minimal inhibitory concentration (MIC), S. aureus RN4220/pMS520, MRSA
Summary of the method: as §1

[6] = tested on: P. aeruginosa PAO1/GN315; assay: MIC, agar plate dilution method, P. aeruginosa PAO1/GN315; format: cell-based, Pseudomonas aeruginosa; settings: for MIC: Pseudomonas aeruginosa, read-out: minimal inhibitory concentration (MIC), P. aeruginosa PAO1/GN315, AMK-resistant
Summary of the method: as §1

[7] = tested on: P. aeruginosa PAO1; assay: MIC, agar plate dilution method, P. aeruginosa PAO1; format: cell-based, Pseudomonas aeruginosa; settings: for MIC: Pseudomonas aeruginosa, PAO1, P. aeruginosa PAO1, Sensitive bacterium, read-out: minimal inhibitory concentration (MIC)
Summary of the method: as §1

[8] = tested on: S. aureus MF490; assay: MIC, agar plate dilution method, S. aureus MF490; format: cell-based, Staphylococcus aureus; settings: for MIC: Staphylococcus aureus, MRSA, read-out: minimal inhibitory concentration (MIC)
Summary of the method: as §1

[9] = tested on: S. aureus RN4220; assay: MIC, agar plate dilution method, S. aureus RN4220; format: cell-based, Staphylococcus aureus; settings: for MIC: Staphylococcus aureus, RN4220, S. aureus RN4220, Sensitive bacterium, read-out: minimal inhibitory concentration (MIC)
Summary of the method: as §1

[10] = tested on: E. coli JM109/pMW218; assay: MIC, agar plate dilution method, E. coli JM109/pMW218; format: cell-based, Escherichia coli; settings: for MIC: Escherichia coli, JM109/PMW218, E. coli JM109/pMW218, Sensitive bacterium, read-out: minimal inhibitory concentration (MIC)
Summary of the method: as §1

[11] = tested on: P. aeruginosa MSC17707; assay: MIC, agar plate dilution method, P. aeruginosa MSC17707; format: cell-based, Pseudomonas aeruginosa; settings: for MIC: Pseudomonas aeruginosa, MSC17707, P. aeruginosa MSC17707, AMK-resistant, read-out: minimal inhibitory concentration (MIC)
Summary of the method: as §1

[12] = tested on: P. aeruginosa MSC01035; assay: MIC, agar plate dilution method, P. aeruginosa MSC01035; format: cell-based, Pseudomonas aeruginosa; settings: P. aeruginosa MSC01035, ABK-resistant; for MIC: Pseudomonas aeruginosa, read-out: minimal inhibitory concentration (MIC)
Summary of the method: as §1

[13] = tested on: A. baumannii ATCC BAA-1710; assay: MIC, agar plate dilution method, A. baumannii ATCC BAA-1710; format: cell-based, Acinetobacter baumannii; settings: for MIC: Acinetobacter baumannii, ATCCBAA1710, A. baumannii ATCC BAA-1710, MDRA, read-out: minimal inhibitory concentration (MIC)
Summary of the method: as §1

[14] = tested on: S. marcescens TH-0447; assay: MIC, agar plate dilution method, S. marcescens TH-0447; format: cell-based, Serratia marcescens; settings: for MIC: Serratia marcescens, TH0447, S. marcescens TH-0447, AMK-resistant, read-out: minimal inhibitory concentration (MIC)
Summary of the method: as §1

SMILES: CNCC(=O)N[C@@H]1C(CO)O[C@H](OC2O[C@H]3C[C@H](N)[C@@H](O[C@@H]4C(N)C[C@@H](N)C[C@H]4O)OC3C(O)C2NC)C(O)[C@H]1O (stereo partly drawn) [Compound V1-p, 6-deoxy-5-epi-4″-N-sarcosylapramycin]
- MIC [1]: 4 µg/mL (≈ 6.73 µM)
- MIC [2]: 8 µg/mL (≈ 13.5 µM)
- MIC [3]: 1 µg/mL (≈ 1.68 µM)
- MIC [4]: 1 µg/mL (≈ 1.68 µM)
- MIC [5]: 1 µg/mL (≈ 1.68 µM)
- MIC [6]: 4 µg/mL (≈ 6.73 µM)
- MIC [7]: 2 µg/mL (≈ 3.36 µM)
- MIC [8]: 4 µg/mL (≈ 6.73 µM)
- MIC [9]: 1 µg/mL (≈ 1.68 µM)
- MIC [10]: 1 µg/mL (≈ 1.68 µM)
- MIC [11]: 2 µg/mL (≈ 3.36 µM)
- MIC [12]: 4 µg/mL (≈ 6.73 µM)
- MIC [13]: 4 µg/mL (≈ 6.73 µM)
- MIC [14]: 8 µg/mL (≈ 13.5 µM)

SMILES: CNC1C(O[C@H]2OC(CO)[C@@H](NC(=O)CCN)[C@H](O)C2O)O[C@H]2C[C@H](N)[C@@H](O[C@@H]3C(N)C[C@@H](N)C[C@H]3O)OC2C1O (stereo partly drawn) [Compound V1-q, 4″-N-(β-alanyl)-6-deoxy-5-epiapramycin]
- MIC [1]: 4 µg/mL (≈ 6.73 µM)
- MIC [2]: 8 µg/mL (≈ 13.5 µM)
- MIC [3]: 1 µg/mL (≈ 1.68 µM)
- MIC [4]: 1 µg/mL (≈ 1.68 µM)
- MIC [5]: 1 µg/mL (≈ 1.68 µM)
- MIC [6]: 4 µg/mL (≈ 6.73 µM)
- MIC [7]: 2 µg/mL (≈ 3.36 µM)
- MIC [8]: 4 µg/mL (≈ 6.73 µM)
- MIC [9]: 1 µg/mL (≈ 1.68 µM)
- MIC [10]: 1 µg/mL (≈ 1.68 µM)
- MIC [11]: 2 µg/mL (≈ 3.36 µM)
- MIC [12]: 4 µg/mL (≈ 6.73 µM)
- MIC [13]: 4 µg/mL (≈ 6.73 µM)
- MIC [14]: 8 µg/mL (≈ 13.5 µM)

SMILES: CNC1C(O[C@H]2OC(CO)[C@@H](NC(=O)[C@@H](O)CN)[C@H](O)C2O)O[C@H]2C[C@H](N)[C@@H](O[C@@H]3C(N)C[C@@H](N)C[C@H]3O)OC2C1O (stereo partly drawn) [Compound V1-r, 6-deoxy-5-epi-4″-N-(L-isoseryl)apramycin]
- MIC [1]: 8 µg/mL (≈ 13.1 µM)
- MIC [2]: 8 µg/mL (≈ 13.1 µM)
- MIC [3]: 1 µg/mL (≈ 1.64 µM)
- MIC [4]: 1 µg/mL (≈ 1.64 µM)
- MIC [5]: 1 µg/mL (≈ 1.64 µM)
- MIC [6]: 2 µg/mL (≈ 3.28 µM)
- MIC [7]: 2 µg/mL (≈ 3.28 µM)
- MIC [8]: 4 µg/mL (≈ 6.55 µM)
- MIC [9]: 1 µg/mL (≈ 1.64 µM)
- MIC [10]: 0.5 µg/mL (≈ 0.819 µM)
- MIC [11]: 2 µg/mL (≈ 3.28 µM)
- MIC [12]: 4 µg/mL (≈ 6.55 µM)
- MIC [13]: 4 µg/mL (≈ 6.55 µM)
- MIC [14]: 8 µg/mL (≈ 13.1 µM)

SMILES: CNC1C(O[C@H]2OC(CO)[C@@H](NC(=O)[C@H](O)CN)[C@H](O)C2O)O[C@H]2C[C@H](N)[C@@H](O[C@@H]3C(N)C[C@@H](N)C(O)[C@H]3O)OC2C1O (stereo partly drawn) [Compound V1-s, 5-epi-4″-N-(D-isoseryl)apramycin]
- MIC [1]: 4 µg/mL (≈ 6.38 µM)
- MIC [2]: 16 µg/mL (≈ 25.5 µM)
- MIC [3]: 0.5 µg/mL (≈ 0.798 µM)
- MIC [4]: 1 µg/mL (≈ 1.6 µM)
- MIC [5]: 1 µg/mL (≈ 1.6 µM)
- MIC [6]: 2 µg/mL (≈ 3.19 µM)
- MIC [7]: 1 µg/mL (≈ 1.6 µM)
- MIC [8]: 4 µg/mL (≈ 6.38 µM)
- MIC [9]: 1 µg/mL (≈ 1.6 µM)
- MIC [10]: 0.5 µg/mL (≈ 0.798 µM)
- MIC [11]: 2 µg/mL (≈ 3.19 µM)
- MIC [12]: 4 µg/mL (≈ 6.38 µM)
- MIC [13]: 4 µg/mL (≈ 6.38 µM)
- MIC [14]: 8 µg/mL (≈ 12.8 µM)

SMILES: CNC1C(OC2OC(CO)C(NC(=N)N)C(O)C2O)OC2CC(N)C(OC3C(N)CC(N)C(O)C3N)OC2C1O (stereo not drawn) [Compound W2-a, 5-amino-4″-deamino-5-deoxy-5-epi-4″-guanidinoapramycin]
- minimal inhibitory concentration (MIC) [1]: 4 µg/mL (≈ 6.89 µM)
- minimal inhibitory concentration (MIC) ([2]; E. faecium ATCC19434): 8 µg/mL (≈ 13.8 µM)
- minimal inhibitory concentration (MIC) ([3]; K. pneumoniae ATCC BAA-1705, KPC-producing strain): 1 µg/mL (≈ 1.72 µM)
- minimal inhibitory concentration (MIC) ([4]; K. pneumoniae ATCC BAA-2146, NDM-producing strain): 1 µg/mL (≈ 1.72 µM)
- minimal inhibitory concentration (MIC) ([5]; S. aureus RN4220/pMS520, MRSA): 1 µg/mL (≈ 1.72 µM)
- minimal inhibitory concentration (MIC) ([6]; P. aeruginosa PAO1/GN315, AMK-resistant): 4 µg/mL (≈ 6.89 µM)
- minimal inhibitory concentration (MIC) ([7]; P. aeruginosa PAO1, Sensitive bacterium): 4 µg/mL (≈ 6.89 µM)
- minimal inhibitory concentration (MIC) ([8]; S. aureus MF490, MRSA): 4 µg/mL (≈ 6.89 µM)
- minimal inhibitory concentration (MIC) ([9]; S. aureus RN4220, Sensitive bacterium): 1 µg/mL (≈ 1.72 µM)
- minimal inhibitory concentration (MIC) ([10]; E. coli JM109/pMW218, Sensitive bacterium): 1 µg/mL (≈ 1.72 µM)
- minimal inhibitory concentration (MIC) ([11]; P. aeruginosa MSC17707, AMK-resistant): 8 µg/mL (≈ 13.8 µM)
- minimal inhibitory concentration (MIC) [12]: 4 µg/mL (≈ 6.89 µM)
- minimal inhibitory concentration (MIC) ([13]; A. baumannii ATCC BAA-1710, MDRA): 8 µg/mL (≈ 13.8 µM)
- minimal inhibitory concentration (MIC) ([14]; S. marcescens TH-0447, AMK-resistant): 4 µg/mL (≈ 6.89 µM)

SMILES: CNC1C(O[C@H]2OC(CO)[C@@H](NC(=O)CN)[C@H](O)C2O)O[C@H]2C[C@H](N)[C@@H](O[C@@H]3C(N)C[C@@H](N)C(O)[C@H]3N)OC2C1O (stereo partly drawn) [Compound W2-b, 5-amino-5-deoxy-5-epi-4″-N-glycylapramycin]
- MIC [1]: 8 µg/mL (≈ 13.4 µM)
- MIC [2]: 32 µg/mL (≈ 53.7 µM)
- MIC [3]: 2 µg/mL (≈ 3.36 µM)
- MIC [4]: 2 µg/mL (≈ 3.36 µM)
- MIC [5]: 2 µg/mL (≈ 3.36 µM)
- MIC [6]: 4 µg/mL (≈ 6.72 µM)
- MIC [7]: 2 µg/mL (≈ 3.36 µM)
- MIC [8]: 16 µg/mL (≈ 26.9 µM)
- MIC [9]: 4 µg/mL (≈ 6.72 µM)
- MIC [10]: 1 µg/mL (≈ 1.68 µM)
- MIC [11]: 4 µg/mL (≈ 6.72 µM)
- MIC [12]: 4 µg/mL (≈ 6.72 µM)
- MIC [13]: 8 µg/mL (≈ 13.4 µM)
- MIC [14]: 16 µg/mL (≈ 26.9 µM)
